# Laboratory results reported in ChEMBL document CHEMBL3885861, “Open TG-GATES”.
# Species on record: Rattus norvegicus
# Assay: Open TG-GATES - Regimen: Daily Repeat
# Assay type: toxicity, organism-based, Sprague-Dawley
# Design: regimen Daily Repeat, gender Male, age 6 weeks
# Conditions: in vivo, po, 0 mg/kg, route gavage, dose level Control; for APTT / Bas / Eos / Fbg / Hb / Ht / Lym / MCH / MCHC / MCV / Mono / Neu / PT / Plat / RBC / Ret / WBC: tissue Blood; for KIDNEY_L / KIDNEY_R / KIDNEY_TOTAL: tissue Kidney; for LIVER: tissue Liver; for A/G / ALP / ALT / AST / BUN / CRE / Ca / Cl / DBIL / GLC / IP / K / LDH / Na / PL / RALB / TBIL / TC / TG / TP / gamma-GTP: tissue Plasma
smiles,measurement,setting,value
CCC1(c2ccccc2)C(=O)NC(=O)NC1=O [PHENOBARBITAL],TERMINAL_BW,"72 h, time 3 day",222.1 g
same,APTT,"72 h, time 3 day",15.6 s
same,Bas,"72 h, time 3 day",0%
same,Eos,"72 h, time 3 day",0.6%
same,Fbg,"72 h, time 3 day",225 mg/dL
same,Hb,"72 h, time 3 day",13.2 g/dL
same,Ht,"72 h, time 3 day",39.4%
same,Lym,"72 h, time 3 day",76.8%
same,MCH,"72 h, time 3 day",22.4 pg
same,MCHC,"72 h, time 3 day",33.6%
same,MCV,"72 h, time 3 day",66.9 fL
same,Mono,"72 h, time 3 day",7.4%
same,Neu,"72 h, time 3 day",15.2%
same,PT,"72 h, time 3 day",12 s
same,Plat,"72 h, time 3 day",126.6 x10_4/uL
same,RBC,"72 h, time 3 day",589.6 x10_4/ul
same,Ret,"72 h, time 3 day",7.7%
same,WBC,"72 h, time 3 day",129.8 x10_2/uL
same,KIDNEY_L,"72 h, time 3 day",0.9 g
same,KIDNEY_R,"72 h, time 3 day",1 g
same,KIDNEY_TOTAL,"72 h, time 3 day",1.9 g
same,LIVER,"72 h, time 3 day",11.2 g
same,A/G,"72 h, time 3 day",1.6
same,ALP,"72 h, time 3 day",912.8 IU/L
same,ALT,"72 h, time 3 day",34 IU/L
same,AST,"72 h, time 3 day",61.4 IU/L
same,BUN,"72 h, time 3 day",16 mg/dL
same,CRE,"72 h, time 3 day",0.5 mg/dL
same,Ca,"72 h, time 3 day",10.8 mg/dL
same,Cl,"72 h, time 3 day",106.6 meq/L
same,DBIL,"72 h, time 3 day",0.01 mg/dL
same,GLC,"72 h, time 3 day",201.8 mg/dL
same,IP,"72 h, time 3 day",7.9 mg/dL
same,K,"72 h, time 3 day",4.9 meq/L
same,LDH,"72 h, time 3 day",84.2 IU/L
same,Na,"72 h, time 3 day",139.4 meq/L
same,PL,"72 h, time 3 day",158.6 mg/dL
same,RALB,"72 h, time 3 day",3.6 g/dL
same,TBIL,"72 h, time 3 day",0.4 mg/dL
same,TC,"72 h, time 3 day",80.2 mg/dL
same,TG,"72 h, time 3 day",142.6 mg/dL
same,TP,"72 h, time 3 day",5.9 g/dL
same,gamma-GTP,"72 h, time 3 day",1.8 IU/L
same,TERMINAL_BW,"[…], time 7 day",254.1 g
same,TERMINAL_BW,"[…], time 14 day",296 g
same,TERMINAL_BW,"[…], time 28 day",396.2 g
same,APTT,"[…], time 7 day",15.9 s
same,Bas,"[…], time 7 day",0%
same,Eos,"[…], time 7 day",0.8%
same,Fbg,"[…], time 7 day",224.8 mg/dL
same,Hb,"[…], time 7 day",14.2 g/dL
same,Ht,"[…], time 7 day",42.7%
same,Lym,"[…], time 7 day",82.2%
same,MCH,"[…], time 7 day",21.9 pg
same,MCHC,"[…], time 7 day",33.4%
same,MCV,"[…], time 7 day",65.5 fL
same,Mono,"[…], time 7 day",6.8%
same,Neu,"[…], time 7 day",10.4%
same,PT,"[…], time 7 day",11.9 s
same,Plat,"[…], time 7 day",110.9 x10_4/uL
same,RBC,"[…], time 7 day",652 x10_4/ul
same,Ret,"[…], time 7 day",6.1%
same,WBC,"[…], time 7 day",125.6 x10_2/uL
same,APTT,"[…], time 14 day",16.5 s
same,Bas,"[…], time 14 day",0%
same,Eos,"[…], time 14 day",0.4%
same,Fbg,"[…], time 14 day",241.4 mg/dL
same,Hb,"[…], time 14 day",14.7 g/dL
same,Ht,"[…], time 14 day",44.1%
same,Lym,"[…], time 14 day",88.2%
same,MCH,"[…], time 14 day",20.6 pg
same,MCHC,"[…], time 14 day",33.4%
same,MCV,"[…], time 14 day",61.9 fL
same,Mono,"[…], time 14 day",3.6%
same,Neu,"[…], time 14 day",7.8%
same,PT,"[…], time 14 day",11.6 s
same,Plat,"[…], time 14 day",113.2 x10_4/uL
same,RBC,"[…], time 14 day",713.2 x10_4/ul
same,Ret,"[…], time 14 day",5.1%
same,WBC,"[…], time 14 day",153.7 x10_2/uL
same,APTT,"[…], time 28 day",17 s
same,Bas,"[…], time 28 day",0%
same,Eos,"[…], time 28 day",0.8%
same,Fbg,"[…], time 28 day",236 mg/dL
same,Hb,"[…], time 28 day",14.8 g/dL
same,Ht,"[…], time 28 day",44.6%
same,Lym,"[…], time 28 day",84.4%
same,MCH,"[…], time 28 day",19.3 pg
same,MCHC,"[…], time 28 day",33.2%
same,MCV,"[…], time 28 day",58.2 fL
same,Mono,"[…], time 28 day",5.6%
same,Neu,"[…], time 28 day",9.4%
same,PT,"[…], time 28 day",12 s
same,Plat,"[…], time 28 day",109 x10_4/uL
same,RBC,"[…], time 28 day",766 x10_4/ul
same,Ret,"[…], time 28 day",2.6%
same,WBC,"[…], time 28 day",129.1 x10_2/uL
same,KIDNEY_L,"[…], time 7 day",1 g
same,KIDNEY_R,"[…], time 7 day",1 g
same,KIDNEY_TOTAL,"[…], time 7 day",2.1 g
same,KIDNEY_L,"[…], time 14 day",1.1 g
same,KIDNEY_R,"[…], time 14 day",1.1 g
same,KIDNEY_TOTAL,"[…], time 14 day",2.2 g
same,KIDNEY_L,"[…], time 28 day",1.4 g
same,KIDNEY_R,"[…], time 28 day",1.4 g
same,KIDNEY_TOTAL,"[…], time 28 day",2.8 g
same,LIVER,"[…], time 7 day",12.4 g
same,LIVER,"[…], time 14 day",13.5 g
same,LIVER,"[…], time 28 day",16.7 g
same,A/G,"[…], time 7 day",1.5
same,ALP,"[…], time 7 day",1114.2 IU/L
same,ALT,"[…], time 7 day",32 IU/L
same,AST,"[…], time 7 day",62 IU/L
same,BUN,"[…], time 7 day",19.2 mg/dL
same,CRE,"[…], time 7 day",0.5 mg/dL
same,Ca,"[…], time 7 day",10.9 mg/dL
same,Cl,"[…], time 7 day",104.6 meq/L
same,DBIL,"[…], time 7 day",0.054 mg/dL
same,GLC,"[…], time 7 day",206.4 mg/dL
same,IP,"[…], time 7 day",7.9 mg/dL
same,K,"[…], time 7 day",4.9 meq/L
same,LDH,"[…], time 7 day",99.8 IU/L
same,Na,"[…], time 7 day",139.4 meq/L
same,PL,"[…], time 7 day",158.2 mg/dL
same,RALB,"[…], time 7 day",3.5 g/dL
same,TBIL,"[…], time 7 day",0.3 mg/dL
same,TC,"[…], time 7 day",73 mg/dL
same,TG,"[…], time 7 day",150 mg/dL
same,TP,"[…], time 7 day",5.9 g/dL
same,gamma-GTP,"[…], time 7 day",1.4 IU/L
same,A/G,"[…], time 14 day",1.5
same,ALP,"[…], time 14 day",764.6 IU/L
same,ALT,"[…], time 14 day",31.4 IU/L
same,AST,"[…], time 14 day",63.4 IU/L
same,BUN,"[…], time 14 day",19 mg/dL
same,CRE,"[…], time 14 day",0.6 mg/dL
same,Ca,"[…], time 14 day",10.6 mg/dL
same,Cl,"[…], time 14 day",105.4 meq/L
same,DBIL,"[…], time 14 day",0.002 mg/dL
same,GLC,"[…], time 14 day",207.8 mg/dL
same,IP,"[…], time 14 day",8.4 mg/dL
same,K,"[…], time 14 day",4.5 meq/L
same,LDH,"[…], time 14 day",102.4 IU/L
same,Na,"[…], time 14 day",141.4 meq/L
same,PL,"[…], time 14 day",159.4 mg/dL
same,RALB,"[…], time 14 day",3.8 g/dL
same,TBIL,"[…], time 14 day",0.2 mg/dL
same,TC,"[…], time 14 day",75.4 mg/dL
same,TG,"[…], time 14 day",138.6 mg/dL
same,TP,"[…], time 14 day",6.3 g/dL
same,gamma-GTP,"[…], time 14 day",0.8 IU/L
same,A/G,"[…], time 28 day",1.5
same,ALP,"[…], time 28 day",596.8 IU/L
same,ALT,"[…], time 28 day",29.6 IU/L
same,AST,"[…], time 28 day",56.2 IU/L
same,BUN,"[…], time 28 day",20 mg/dL
same,CRE,"[…], time 28 day",0.4 mg/dL
same,Ca,"[…], time 28 day",10.4 mg/dL
same,Cl,"[…], time 28 day",106.4 meq/L
same,DBIL,"[…], time 28 day",0.006 mg/dL
same,GLC,"[…], time 28 day",201 mg/dL
same,IP,"[…], time 28 day",8 mg/dL
same,K,"[…], time 28 day",4.5 meq/L
same,LDH,"[…], time 28 day",86 IU/L
same,Na,"[…], time 28 day",140.4 meq/L
same,PL,"[…], time 28 day",165.8 mg/dL
same,RALB,"[…], time 28 day",3.9 g/dL
same,TBIL,"[…], time 28 day",0.3 mg/dL
same,TC,"[…], time 28 day",76.4 mg/dL
same,TG,"[…], time 28 day",213.2 mg/dL
same,TP,"[…], time 28 day",6.5 g/dL
same,gamma-GTP,"[…], time 28 day",1.4 IU/L
